The test system of test [1] is sirtuin 6 (SIRT6). The test is described as follows: Sirtuin 6 immunolabelling (immunofluorescence) in normal human fibroblasts. Format: cell-based. The following applies: for SIRT6 fluorescence versus control conditions: 10^−6M or 3×10^−6 M, all conditions tested (short- and long-term); for sirtuin 6 expression stimulation effect in long-term treatment: passage 5 to passage 17. How it is done: (§1) The object of this study is to determine the influence of peptides SEQ ID No. 5 and SEQ ID No. 7 on Sirtuin 6 expression in human skin. To do this, specific labeling by immunofluorescence was carried out on normal human keratinocytes (NHK) culture and on normal human fibroblast cultures.
(§2) Protocol: NHK or normal human fibroblasts are treated once per day with a solution at 10^−6M or at 3×10^−6M of peptide SEQ ID No. 5 or peptide SEQ ID No. 7.
(§3) Short-term treatment studies for 24, 48 and 72 hours were carried out.
(§4) Long-term treatment studies were also carried out between passage 5 and passage 17 (or 12 passages) for fibroblasts and between passage 3 and passage 5 (or 2 subcultures) for NHK.
(§5) For immunolabelling by anti SIRT6 antibodies, the cells are washed and fixed with paraformaldehyde at 3.7% for 10 minutes. The cells are then incubated in the presence of a specific anti SIRT6 antibody (Abeam, ref ab62738, polyclonal rabbit), and then a secondary suitable antibody, coupled with a fluorescent dye. After mounting in a particular medium, the slides are observed by epifluorescence microscope (Nikon Eclipse E 80i microscope). Fluorescence intensity is quantified by analyzing the image using the Image-Pro Analyser version 5 software.

In test [2] the test system is sirtuin 6 (SIRT6). The test is described as follows: Sirtuin 6 immunolabelling (immunofluorescence) in normal human keratinocytes (NHK). Format: cell-based. The following applies: for SIRT6 fluorescence versus control conditions: 10^−6M or 3×10^−6 M, all conditions tested (short- and long-term); for sirtuin 6 expression stimulation effect in long-term treatment: passage 3 to passage 5. How it is done: as §1, §2, §3, §4, §5

Test [3] has as its system transglutaminase 1 (TG1). The test is described as follows: Epidermal differentiation marker immunolabelling in NHK: transglutaminase 1. As to conditions: 10^−6 M or 3×10^−6 M, 2 passages and 11 days of treatment. Type of test: cell-based, human. On the procedure:
(§6) The goal of this study is to determine the influence of peptide SEQ ID No. 5 on epidermal differentiation. To do this, the expression of the main epidermal differentiation markers, specifically expressed in the keratinocytes of suprabasal layers cultivated on a long-term basis, was studied. The markers tested are transglutaminase 1 and involucrin.
(§7) Protocol: NHK in culture are treated once per day with a solution at 10^−6M or at 3×10^−6M of peptide SEQ ID No. 5, between passage 1 and passage 3 (or 2 passages and 11 days of treatment). The cells are then washed and fixed. After unmasking the specific sites, the cells are incubated in the presence of a specific antibody directed against TG1 (TEBU, ref sc-25786, polyclonal rabbit), a specific antibody directed against involucrin (Novocastra NCL-INV, mouse monoclonal, clone SYS), and then incubated in the presence of a suitable secondary antibody, coupled with a fluorescent dye. For greater ease of observation, the cell nuclei may be counterstained by DAPI (4′,6′ Di Amidino-2-Phenylindole), a fluorescent blue molecule capable of strongly bonding to DNA). After mounting in a particular medium, the slides are observed by epifluorescence microscope (Nikon Eclipse E 80i microscope).

The test system of test [4] is involucrin. The test is described as follows: Epidermal differentiation marker immunolabelling in NHK: involucrin. Format: cell-based, human. The following applies: 10^−6 M or 3×10^−6 M, 2 passages and 11 days of treatment. On the procedure:
as §6, §7

The test system of test [5] is collagen I. The test is described as follows: Collagen I immunolabelling in normal human fibroblasts, long-term culture. The following applies: 10^−6M or 3×10^−6M, passage 5 to 17. Format: cell-based. How it is done:
(§8) The goal of this study is to determine the influence of peptide SEQ ID No. 5 on the expression of dermal extracellular matrix molecules. To do this, the expression of collagens I and III in normal human fibroblasts cultivated on a long-term basis was studied.
(§9) Protocol: Normal human fibroblasts are treated once per day with a solution at 10^−6 M or at 3×10^−6 M of peptide SEQ ID No. 5, between passage 5 and passage 17 (or 12 passages). The cells are then washed and fixed with cold methanol for 5 minutes. After unmasking specific sites, the cells are incubated in the presence of a specific antibody directed against collagen I (TEBU, ref 600-401-103, polyclonal rabbit) or against collagen III (TEBU, ref 600-401-105, polyclonal rabbit), and then incubated in the presence of a suitable secondary antibody, coupled with a fluorescent dye. After mounting in a particular medium, the slides are observed by epifluorescence microscope (Nikon Eclipse E 80i microscope).

The subject of test [6] is collagen III. The test is described as follows: Collagen III immunolabelling in normal human fibroblasts, long-term culture. Format: cell-based. The following applies: 10^−6M or 3×10^−6M, passage 5 to 17. On the procedure: as §8, §9
Test [7] has as its system normal human fibroblasts. The test is described as follows: Comet assay after UVB irradiation of normal human fibroblasts. As to conditions: peptide 3×10^−6 M 24 h before and 24 h after UVB 60 mJ/cm^2. Format: cell-based. On the procedure:
The goal of this study is to determine the protective effect of peptide SEQ ID No. 5 on damage caused to the DNA by UV radiation. To do this, a comet assay, that enables damage caused to the DNA at the cellular level to be quantified, was performed.
Protocol: Normal human fibroblasts are cultured for 24 hours with the peptide of sequence SEQ ID No. 5 at a concentration of 10^−6M or 3×10^−6M, and then irradiated with UVB radiation at a rate of 60 mJ/cm^2, and then treated again for 24 hours by the peptide at a concentration of 10^−6M or 3×10^−6M. A control condition is carried out in the absence of treatment. The cells are then detached from their support by the trypsin, then centrifuged at 1200 rotations/min for 10 minutes in order to concentrate and count them.
A defined number of cells (25,000 cells) is then included in a Low Melting agarose gel at 0.75%, and then deposited on a glass slide previously covered with agarose at 1%. The slides are then immersed in a lysis solution for 1½ hours at 4° C., and then in an alkaline solution for 20 min at 4° C. The cells are thus lyzed and the DNA is denatured. […]
Quantification software enables the mean “Tail Moment” (or length of the comet tail) applied to each condition tested to be determined This parameter provides information on the level of DNA damage: the higher this parameter, the greater the DNA degradation.

For test [8], the system named is sirtuin 6 (SIRT6). The test is described as follows: Sirtuin 6 immunolabelling in NHK after oxidative stress by H2O2. Format: cell-based, human. On the procedure:
The goal of this study is to determine the protective effect of peptide SEQ ID No. 5 on keratinocytes during oxidative stress. To do this, the expression of Sirtuin 6 was qualitatively and quantitatively evaluated by specific immunolabelling after oxidative stress by H2O2.
Protocol: The NHK in culture are treated for 24 hours with a solution at 10^−6M or 3×10^−6M of peptide SEQ ID No. 5. The cells are then incubated in the presence of H2O2 at 2 mM, rinsed and then treated for another 24 hours with a solution at 10^−6M or 3×10^−6M of peptide SEQ ID No. 5. A control that was not treated and not subjected to the H2O2 stress (control 0), as well as a control that was not treated but was subjected to the H2O2 stress (control 1) were carried out.
For immunolabelling by anti SIRT6 antibodies, the cells are washed and fixed with paraformaldehyde at 3.7% for 10 minutes. The cells are then incubated in the presence of a specific anti SIRT6 antibody (Abcam, ref ab62738, polyclonal mouse), and then a secondary suitable antibody, coupled with a fluorescent dye. After mounting in a particular medium, the slides are observed by epifluorescence microscope (Nikon Eclipse E 80i microscope). Fluorescence intensity is quantified by analyzing the image using the Image-Pro Analyser version 5 software.

For test [9], the system named is TRF2 protein. The test is described as follows: TRF2 immunolabelling in normal human fibroblasts, long-term culture. Type of test: cell-based. On the procedure:
(§10) The goal of this study is to determine the influence of peptide SEQ ID No. 4 on TRF2 protein expression in human skin, a protein specifically associated with telomeres and involved in their maintenance. To do this, specific labeling by immunofluorescence was carried out on normal human keratinocytes (NHK) culture and on normal human fibroblast cultures on a long-term basis.
(§11) Protocol: NHK or normal human fibroblasts in culture are treated once per day with a solution at 10^−6M or at 3×10^−6M of peptide SEQ ID No. 4, between passage 5 and passage 17 (or 12 passages) for fibroblasts and between passage 1 and passage 2 (or 1 passage and 10 days of treatment) for NHK.
(§12) For immunolabelling by anti TRF2 antibodies, the cells are washed and fixed with paraformaldehyde at 3.7% for 10 minutes. The cells are then incubated in the presence of a specific anti TRF2 antibody (Abeam, ref ab13579, polyclonal mouse), and then a secondary suitable antibody, coupled with a fluorescent dye. After mounting in a particular medium, the slides are observed by epifluorescence microscope (Nikon Eclipse E 80i microscope). Fluorescence intensity is quantified by analyzing the image using the Image-Pro Analyser version 5 software.

The subject of test [10] is TRF2 protein. The test is described as follows: TRF2 immunolabelling in normal human keratinocytes (NHK), long-term culture. Type of test: cell-based. On the procedure: as §10, §11, §12
Setting [11] is: 10^−6 M or 3×10^−6 M, long-term.

Where no end group is shown, it is not given here.

Consider three substances from US8569243B2, “Sirtuin 6 activating peptides and cosmetic or pharmaceutical composition containing them” (ISP Investments Inc., priority 2010, dated 2013).

With “Gly-Ala-Gly-Val-Ser-Ala-Glu-NH2 (GAGVSAE-NH2) [SEQ ID No. 5]”, the “SIRT6 fluorescence versus control conditions” value in test [1] and in [2] was “more intense fluorescence” in each case. Besides, the “sirtuin 6 expression stimulation effect in long-term treatment” value (shortened to “sirtuin 6 expression stimulation effect”) in test [1] and in test [2] was “maintained for the long term” each time. The “maximum increase of the SIRT6 fluorescence with relation to the control cells” value is 47% in [1] (treated 24 hours, 10^−6 M peptide) and 35% in test [2] (treated 72 hours, 3×10^−6M peptide). Also, the “transglutaminase 1 fluorescence versus control conditions” value in test [3] is reported as “More intense fluorescence”. In test [4], the “involucrin fluorescence versus control conditions” value is “More intense fluorescence”. Also, in [5], the “collagen I fluorescence versus control conditions” value was “More intense fluorescence”. For the same substance, in [6], the “collagen III fluorescence versus control conditions” value is “More intense fluorescence”. Also, the “reduction of the Tail Moment compared to the control conditions” value in [7] stood at 24.8%. Further, the “increase in SIRT6 expression with relation to control 1 (untreated, H2O2 stress)” value in [8] (peptide 3×10^−6 M 24 h before and 24 h after H2O2 2 mM) stood at 20%; in test [8] (peptide 10^−6M 24 h before and 24 h after H2O2 2 mM) it was 16%.
With GAGVSAE [SEQ ID No. 4], the “TRF2 fluorescence versus control conditions” value in test [9] (setting [11]) and in [10] (setting [11]) was “more intense fluorescence” in each case. The “maximum increase of the TRF2 fluorescence with relation to the control cells” value in [9] (treated for 12 subcultures, 10^−6 M peptide) turned out to be 63%; in [10] (treated for 10 days, 3×10^−6 M peptide), 39%.
Regarding “Thr-Gln-Asn-Ile-Asp-Glu-Leu-NH2 (TQNIDEL-NH2) [SEQ ID No. 7]”, in test [1], the “SIRT6 fluorescence versus control conditions” value is given as “more intense fluorescence” and the “sirtuin 6 expression stimulation effect” value is given as “maintained for the long term”. Further, in test [2], the “SIRT6 fluorescence versus control conditions” value is “more intense fluorescence” and the “sirtuin 6 expression stimulation effect” value is recorded as “maintained for the long term”.
